The results in this text go back to patent US20130273567A1, “Screening Method for Candidate Agonist Compounds for Adiponectin Receptor I” (priority 2010, published 2013).

Assay [1] has as its system muscle-R1KO mice. Briefly: Treatment of muscle-R1KO mice with AICAR, resveratrol or MnTBAP. It counts as in vivo. The conditions noted are these: for citrate synthase activities in muscle / insulin resistance / mitochondrial content in muscle: AICAR 500, resveratrol 400, MnTBAP 10 mg per kg body weight per day.
Procedure: Oral glucose tolerance test (OGTT) and insulin tolerance test (ITT) were conducted by the method described in the following documents (Nature Med. 8, 1288-1295 (2002); Nature Med. 7, 941-946 (2001)), with some modifications. The areas of the glucose and insulin curves were calculated, respectively, by multiplying the cumulative mean height of the glucose values (1 mg/ml=1 cm) and insulin values (1 ng/ml=1 cm) by time (60 min=1 cm) (Nature Med. 13, 332-339 (2007); Nature Med. 7, 941-946 (2001)). The insulin resistance index was calculated from the product of the areas of glucose and insulin×10^−2 in the glucose tolerance test. The results were expressed as the percentage of the value of control littermates.
The test system of assay [2] is PGC-1α. Briefly: PGC-1α (Ppargc1a mRNA) expression in C2C12 myocytes. The class given is cell-based, mouse. The conditions noted are these: C2C12 myocytes preincubated with AraA 0.5 mM 1 hr, STO-609 1 μg/ml 6 hr or EGTA 5 mM 20 min, then adiponectin 10 μg/ml 1.5 hr. How it is done: Real-time PCR was carried out according to the method described in the following documents (Nature Med. 13, 332-339 2007); Nature 423, 762-769 (2003); J. Biol. Chem. 281, 8748-8755 (2006)). Total RNA was prepared from cells or tissues by using Trizol (Invitrogen) according to the manufacturer's instructions. Quantification of mRNA was conducted using a real-time PCR method (Nature 423, 762-769 (2003)) with slight modifications. The procedures used for immunoblotting are described in the following documents (Nature Med. 7, 941-946 (2001); J. Biol. Chem. 281, 26602-26614 (2006); J. Biol. Chem. 281, 8748-8755 (2006)). The livers or muscles were freeze-clamped in liquid nitrogen in situ (Nature Med. 7, 941-946 (2001); J. Biol. Chem. 281, 26602-26614 (2006); J. Biol. Chem. 281, 8748-8755 (2006)). The mouse C2C12 myoblasts were grown in 90% Dulbecco's modified high glucose Eagle's medium containing 10% (v/v) fetal bovine serum. When the cells reached 80% confluent, the myoblasts were induced to differentiate into myocytes by replacing the medium with a low serum differentiation medium (98% Dulbecco's modified high glucose Eagle's medium, 2.5% (v/v) horse serum). The medium was changed daily. The C2C12 cells were transfected by using Pofectamine 2000 (Invitrogen) and following the manufacturer's instructions.

For assay [3], the system named is C2C12 myocytes. Briefly: Mitochondrial content assay in C2C12 myocytes (mtDNA copy number, MitoTracker Green). It counts as cell-based, mouse. The conditions noted are these: C2C12 myocytes preincubated with AraA 0.5 mM 1 hr or STO-609 1 μg/ml 6 hr, then adiponectin 48 hr. On the procedure:
Mice used were from 8 to 10 week old at the time of the experiment. […] Induction of myogenic differentiation using C2C12 cells was carried out according to the method described in the following document (Nature Med. 8, 1288-1295 (2002)). By day 5, the cells had differentiated into multinucleated contracting myocytes. C2C12 myocytes were used after myogenic differentiation in all experiments.
(§1) The mouse C2C12 myoblasts were grown in 90% Dulbecco's modified high glucose Eagle's medium containing 10% (v/v) fetal bovine serum. When the cells reached 80% confluent, the myoblasts were induced to differentiate into myocytes by replacing the medium with a low serum differentiation medium (98% Dulbecco's modified high glucose Eagle's medium, 2.5% (v/v) horse serum). The medium was changed daily. The C2C12 cells were transfected by using Pofectamine 2000 (Invitrogen) and following the manufacturer's instructions.
(§2) Mitochondrial content assays were carried out as described in the following document (Cell Metab. 4, 75-87 (2006)), with slight modifications. Quantification of the mitochondrial content was conducted by using mtDNA and MitoTracker Green probe (Molecular Probes) according to the method as described in the following document (Obes. Res. 13, 574-581 (2005)). MitoTracker Green probe preferentially accumulates in mitochondria regardless of the mitochondrial membrane potential and provides an accurate assessment of mitochondrial mass. Cells were washed with PBS and after addition of 100 nM MitoTracker Green FM (Molecular Probes), incubated at 37° C. for 30 min. Cells were harvested by using trypsin/EDTA and resuspended in PBS. Fluorescence intensity was detected with excitation and emission wavelengths of 490 and 516 nm, respectively, and the values thus measured were corrected for total protein (mg/ml).

Assay [4] concerns AMPK. Briefly: AMPK phosphorylation in C2C12 myocytes (immunoblotting). It counts as cell-based, mouse. The conditions noted are these: for effect on adiponectin-induced increase in AMPK phosphorylation: C2C12 myocytes preincubated with 5 mM EGTA 20 min, 50 μM BAPTA-AM 30 min or 10 μM U73122 30 min, then adiponectin 30 μg/ml 5 min. On the procedure: as §1
The subject of assay [5] is muscle-R1KO mice. Briefly: Increased calcium influx experiment (Bay-K 8644 gelatin hydrogel) in muscle-R1KO mice. The class given is in vivo. The conditions noted are these: 0.25 μM Bay-K 8644. On the procedure:
as §2
Citrate synthase activity was determined from the homogeneates by using a spectrophotometer according to the method described in the following documents (Cell Metab. 4, 75-87 (2006); Eur. J. Biochem. 10, 198-206 (1969); Obes Res 13, 574-581 (2005)). The citrate synthase activity was measured at 37° C. in 0.1M Tris-HCl (pH 8.3) assay buffer containing 0.12 mM 5,5′-dithio-bis(2-nitrobenzoic acid) and 0.6 mM oxaloacetate. After recording of absorbance at 412 nm in the first two minutes, the reaction was started with the addition of 3 mM acetyl-CoA and a change in absorbance was measured every 10 sec for 7 min.
Hydrogels were prepared by crosslinking aqueous gelatin solutions with glutaraldehyde according to the method described in the following document (J. Control Release 64, 133-142 (2000)). For incorporating Bay-K 8644 into the resulting gelatin hydrogels, 20 μl of Bay-K 8644 (0.25 μM) was added dropwise onto 20 mg of freeze-dried hydrogel and left it overnight at 4° C. Under anesthesia, the gelatin hydrogel having Bay-K 8644 incorporated therein was implanted under the skin. Then, the skin was carefully sutured with No. 4-0 nylon monofilament.

Assay [6] deals with CaMKI, HDAC5. Briefly: Phosphorylation of CaMKI and HDAC5 in C2C12 myocytes (immunoblotting). The conditions noted are these: 5 mM EGTA. The class given is cell-based, mouse. On the procedure:
as §1

Assay [7] deals with T1, mAdipoR1 (Mus musculus, UniProt Q91VH1).
T1 construct: expressed in transfected cells; host or cells: Xenopus oocytes (stage V to VII) injected with cRNA
T1 sequence (Q91VH1 1-375): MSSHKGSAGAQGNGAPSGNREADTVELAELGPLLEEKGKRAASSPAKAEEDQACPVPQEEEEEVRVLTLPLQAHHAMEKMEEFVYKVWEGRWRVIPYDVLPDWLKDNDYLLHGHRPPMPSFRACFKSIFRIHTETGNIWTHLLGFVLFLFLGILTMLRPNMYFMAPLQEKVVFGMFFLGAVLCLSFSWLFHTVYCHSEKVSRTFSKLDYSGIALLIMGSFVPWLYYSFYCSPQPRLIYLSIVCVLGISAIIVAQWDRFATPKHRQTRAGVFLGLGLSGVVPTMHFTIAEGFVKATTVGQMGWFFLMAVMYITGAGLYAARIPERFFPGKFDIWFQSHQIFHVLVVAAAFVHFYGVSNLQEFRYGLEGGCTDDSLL
Briefly: Xenopus oocytes injected with AdipoR1 cRNA, two-electrode voltage clamp recording. The conditions noted are these: Xenopus oocytes expressing AdipoR1, 5 mM EGTA. It counts as cell-based. On the procedure:
Stage V to VII oocytes were treated with 2 mg/ml of collagenase S-1 (Nitta gelatin) in calcium ion-free saline solution (82.5 mM NaCl, 2 mM KCl, 1 mM MgCl2, and 5 mM HEPES, pH 7.5) for 1 to 2 hr at room temperature. The resulting oocytes were then microinjected with 50 ng of cRNA for mAdipoR1. The cRNA was synthesized from linearized modified pSPUTK. The injected oocytes were incubated for 3 days at 18° C. in a bath solution (88 mM NaCl, 1 mM KCl, 0.3 mM Ca(NO3)2, 0.4 mM CaCl2, 0.8 mM MgSO4, 2.4 mM NaHCO3, 15 mM HEPES, pH 7.6) supplemented with 10 μg/ml of penicillin and streptomycin.
Whole cell currents were recorded with a two-electrode voltage clamp technique. Intracellular glass electrodes were filled with 3M KCl. Signals were amplified with an OC-725C amplifier (Warner Instruments), low-pass filtered at 50 Hz, and digitized at 1 kHz. A control bath solution contained 115 mM NaCl, 2.5 mM KCl, 1.8 mM CaCl2, and 10 mM HEPES. It was titrated to pH 7.2 with NaOH. A calcium ion free solution containing 1.8 mM BaCl2 instead of CaCl2 was used. The inward current was monitored at a holding potential of −80 mV. Calcium ion activated Cl^− current was monitored by applying 500-mscc depolarizing pulses of +100 mV and +50 mV from the holding potential of −80 mV. Adiponectin was supplied to the superfusing bath solution via a silicon tube connected to computer-driven solenoid valves. Data acquisition and analysis were carried out using Digidata 1322A and pCLAMP software.

In assay [8] the target is T2, AdipoR1 (Mus musculus, UniProt Q91VH1).
T2 sequence (Q91VH1 1-375): T1 sequence (Q91VH1 1-375)
Briefly: Calcium imaging in C2C12 myocytes (fura-2). It counts as cell-based. More on the design: endogenous in cells; host or cells: mouse C2C12 myocytes (differentiated from myoblasts). How it is done:
C212 myocytes cultured on glass base dishes (IWAKI) were treated with 2.5 μM fura-2/AM for 30 min. Fluorescence was measured with an Aquacosmos Calcium Imaging system (Hamamatsu Photonics). Ligands were delivered through the superfusing Ringer's solution (140 mM NaCl, 5.6 mM KCl, 5 mM HEPES, 2.0 mM sodium pyruvate, 1.25 mM KH2PO4, 2.0 mM CaCl2, 2.0 mM MgCl2, 9.4 mM D-glucose (pH 7.4)). For the calcium chelating experiment, EGTA solution (140 mM NaCl, 5.6 mM KCl, 5 mM HEPES, 2.0 mM sodium pyruvate, 1.25 mM KH2PO4, 2.0 mM MgCl2, 5.0 mM EGTA-2Na, 9.4 mM D-glucose (pH 7.4) was used for the bath solution. Fura-2 fluorescence ratios were calibrated to calcium ion signals.

Structures are written as SMILES.

Take `NC(=O)c1ncn([C@@H]2O[C@H](CO)[C@@H](O)[C@H]2O)c1N` [AICAR, 5-aminoimidazole-4-carboxamide-1-β-D-libocide]: in assay [1] (muscle-R1KO mice, 2 weeks), the “citrate synthase activities in muscle” value is listed as “increased”, the insulin resistance entry is “significantly ameliorated” and the “mitochondrial content in muscle” value is “increased”. For the same molecule, in assay [1] (muscle-R1KO mice, AICAR 500 mg per kg body weight per day, 2 weeks), the “rescue of the AdipoR1 loss in muscle” value is “significantly but partially rescued”. In addition, in assay [1] (muscle-R1KO mice, AICAR 500 mg per kg body weight per day, 2 hours), the “phosphorylation of AMPK in muscle” value is recorded as “significantly increased”.

Consider `Nc1ncnc2c1ncn2[C@@H]1O[C@H](CO)[C@@H](O)[C@@H]1O` [AraA], for which the “effect on PGC-1α expression induced by adiponectin” value (“effect on PGC-1α expression induced” for short) in assay [2] is on record as “only tended to decrease”. Besides, the “effect on adiponectin-induced increase in mitochondrial biogenesis” value in assay [3] is “almost completely abolished”.

For the molecule `CC(=O)OCOC(=O)CN(CC(=O)OCOC(C)=O)c1ccccc1OCCOc1ccccc1N(CC(=O)OCOC(C)=O)CC(=O)OCOC(C)=O` [BAPTA-AM, Bis-(o-aminophenoxy)ethane-N,N,N9,N9-tetra-acetic acid, tetraacetoxymethyl ester], the “effect on adiponectin-induced increase in AMPK phosphorylation” value in assay [4] is reported as “partially suppressed”.

For the molecule `COC(=O)C1=C(C)NC(C)=C([N+](=O)[O-])C1c1ccccc1C(F)(F)F` (stereo not shown) [Bay-K 8644], in assay [5], the “CaMKKβ activity (phosphorylation of CaMKI) in skeletal muscle” value is listed as “increase”, the “citrate synthase activities in muscle” value is reported as “significantly enhanced”, the “insulin-stimulated phosphorylation of Akt in muscle” value is “significantly enhanced” and the “mitochondrial content in muscle” value was “significantly enhanced”.

For the molecule `O=C(O)CN(CCOCCOCCN(CC(=O)O)CC(=O)O)CC(=O)O` [EGTA], the “effect on increased CaMKI phosphorylation stimulated with adiponectin” value in assay [6] was “almost completely abolished”. For the same molecule, the “effect on adiponectin-induced increase in AMPK phosphorylation” value in assay [4] is “partially suppressed”. For the same molecule, in assay [4] (C2C12 myocytes, 5 mM EGTA, AICAR 1 mM 1 hr), the “effect on phosphorylation of AMPK induced by AICAR” value is “had no effect”. Also, the “effect on ionomycin-dependent phosphorylation of AMPK” value in assay [4] (C2C12 myocytes, 5 mM EGTA, ionomycin 1 μM) was “almost completely abolished”. In addition, in assay [7], the “effect on adiponectin-induced inward current responses” value is given as “almost completely abolishes” and the “effect on calcium-ion activated Cl- current responses to adiponectin” value is “almost completely abolished”. In addition, in assay [8] (5 mM EGTA (removal of extracellular free calcium ions)), the “effect on adiponectin-induced calcium ion response” value is “almost completely abolished”. In assay [8] (EGTA), the “effect on ATP-induced intracellular calcium ion release” value is given as “had no effect”. Moreover, the “effect on PGC-1α expression induced” value in assay [2] is “effectively and almost completely abolished”.

As for `O=C(O)c1ccc(/C2=C3\C=CC(=N3)/C(c3ccc(C(=O)O)cc3)=c3/cc/c4[n]3[Mn]([Cl])[n]3c2ccc3/C(c2ccc(C(=O)O)cc2)=C2/C=CC(=N2)\C=4c2ccc(C(=O)O)cc2)cc1` [MnTBAP], in assay [1] (MnTBAP 10 mg per kg body weight per day, 2 weeks), the “ROS such as H2O2 in skeletal muscle” value was “significantly decreased”. Moreover, in assay [1] (muscle-R1KO mice, 2 weeks), the “citrate synthase activities in muscle” value was “failed to significantly increase”, the insulin resistance result is “tended to ameliorate” and the “mitochondrial content in muscle” value is “failed to significantly increase”.

Take `O=C(O)c1ccc2c3c1cccc3c(=O)n1c3ccccc3nc21` [STO-609]: in assay [2], the “effect on PGC-1α expression induced” value was “effectively and almost completely abolished”. In addition, in assay [3], the “effect on adiponectin-induced increase in mitochondrial biogenesis” value is on record as “almost completely abolished”.

Take `COc1ccc2c(c1)CC[C@@H]1[C@@H]2CC[C@]2(C)[C@@H](NCCCCCCN3C(=O)C=CC3=O)CC[C@@H]12` [U73122]: in assay [4], the “effect on adiponectin-induced increase in AMPK phosphorylation” value is “had little effect”.

In the case of `Oc1ccc(C=Cc2cc(O)cc(O)c2)cc1` [resveratrol], in assay [1] (muscle-R1KO mice, 2 weeks), the “citrate synthase activities in muscle” value is listed as “increased”, the insulin resistance result is recorded as “significantly ameliorated” and the “mitochondrial content in muscle” value is “increased”.
